System: LN229 gliobastoma cells MGMT+/MMR−
Experiment: Anti-cancer assay, isogenic LN229 cells, nuclei count (Example 43)
Format: cell-based
Details: Homo sapiens, LN-229; LN229 MGMT+/MMR−; 120 hours; read-out: MGMT+ MMR− Activity

NC(=O)c1ncn2c(=O)n(CCOC(F)(F)F)nnc12 [Compound I-1, 4-Oxo-3-(2-(trifluoromethoxy)ethyl)-3,4-dihydroimidazo[5,1-d][1,2,3,5]tetrazine-8-carboxamide]
IC50: > 100 µM

Source: patent publication US20250066371A1, “FLUOROALKOXYALKYLENE-DIHYDROIMIDAZO[5,1-D]TETRAZINONE COMPOUNDS AND RELATED COMPOUNDS AND THEIR USE IN TREATING MEDICAL CONDITIONS” (priority 2023, published 2025)
